In ChEMBL document CHEMBL5442219:

Tests used:
Conditions in all cases: Compound concentration 10 µM
[1] = biological target: D(1B) dopamine receptor (Homo sapiens) (UniProt P21918)
Description: PDSP Primary Binding target: DRD5 - Compounds are tested at 10 uM concentration, plate are incubated at room temperature in the dark for 90 minutes. Reaction are stopped by vacuum filtration onto 0.3% polyethyleneimine soaked filter mats using Filtermate harvester. Scintilation cocktail is then melted onto microwave-dried filters on a hot plate and the radio activity is counted in Microbia counter.

[2] = biological target: T1, Alpha-1A adrenergic receptor (Homo sapiens) (UniProt P35348)
T1 sequence (whole entry): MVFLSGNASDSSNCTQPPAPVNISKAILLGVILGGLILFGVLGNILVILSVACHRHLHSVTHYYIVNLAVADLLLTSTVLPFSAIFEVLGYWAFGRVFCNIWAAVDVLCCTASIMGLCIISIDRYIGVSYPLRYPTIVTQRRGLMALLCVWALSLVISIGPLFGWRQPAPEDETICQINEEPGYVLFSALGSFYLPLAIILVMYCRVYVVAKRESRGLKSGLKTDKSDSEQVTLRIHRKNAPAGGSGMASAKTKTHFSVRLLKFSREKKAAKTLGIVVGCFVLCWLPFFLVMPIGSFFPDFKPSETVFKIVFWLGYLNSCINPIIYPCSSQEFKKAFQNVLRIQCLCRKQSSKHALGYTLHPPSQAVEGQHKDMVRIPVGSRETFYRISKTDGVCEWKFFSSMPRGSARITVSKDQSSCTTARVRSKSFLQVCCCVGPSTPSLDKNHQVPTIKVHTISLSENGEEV
Description: PDSP Primary Binding target: ADRA1A - Compounds are tested at 10 uM concentration, plate are incubated at room temperature in the dark for 90 minutes. Reaction are stopped by vacuum filtration onto 0.3% polyethyleneimine soaked filter mats using Filtermate harvester. Scintilation cocktail is then melted onto microwave-dried filters on a hot plate and the radio activity is counted in Microbia counter.

[3] = biological target: T2, Alpha-1D adrenergic receptor (Homo sapiens) (UniProt P25100)
T2 sequence (whole entry): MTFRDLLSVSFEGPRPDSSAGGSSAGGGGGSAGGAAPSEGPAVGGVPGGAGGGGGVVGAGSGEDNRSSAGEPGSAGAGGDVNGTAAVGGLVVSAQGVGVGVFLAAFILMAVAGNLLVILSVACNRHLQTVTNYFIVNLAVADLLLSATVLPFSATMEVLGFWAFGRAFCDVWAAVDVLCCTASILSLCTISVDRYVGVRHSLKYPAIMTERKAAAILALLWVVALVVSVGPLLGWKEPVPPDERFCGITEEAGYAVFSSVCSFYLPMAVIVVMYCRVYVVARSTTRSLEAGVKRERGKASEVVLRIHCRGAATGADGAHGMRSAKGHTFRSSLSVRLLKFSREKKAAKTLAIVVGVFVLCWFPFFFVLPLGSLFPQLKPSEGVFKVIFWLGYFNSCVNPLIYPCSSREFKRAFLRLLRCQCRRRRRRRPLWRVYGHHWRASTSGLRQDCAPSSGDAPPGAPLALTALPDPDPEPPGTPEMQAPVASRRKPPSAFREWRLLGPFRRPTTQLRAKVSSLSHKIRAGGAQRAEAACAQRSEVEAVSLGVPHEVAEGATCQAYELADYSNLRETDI
Description: PDSP Primary Binding target: ADRA1D - Compounds are tested at 10 uM concentration, plate are incubated at room temperature in the dark for 90 minutes. Reaction are stopped by vacuum filtration onto 0.3% polyethyleneimine soaked filter mats using Filtermate harvester. Scintilation cocktail is then melted onto microwave-dried filters on a hot plate and the radio activity is counted in Microbia counter.

[4] = biological target: T3, Muscarinic acetylcholine receptor M4 (Homo sapiens) (UniProt P08173)
T3 sequence (whole entry): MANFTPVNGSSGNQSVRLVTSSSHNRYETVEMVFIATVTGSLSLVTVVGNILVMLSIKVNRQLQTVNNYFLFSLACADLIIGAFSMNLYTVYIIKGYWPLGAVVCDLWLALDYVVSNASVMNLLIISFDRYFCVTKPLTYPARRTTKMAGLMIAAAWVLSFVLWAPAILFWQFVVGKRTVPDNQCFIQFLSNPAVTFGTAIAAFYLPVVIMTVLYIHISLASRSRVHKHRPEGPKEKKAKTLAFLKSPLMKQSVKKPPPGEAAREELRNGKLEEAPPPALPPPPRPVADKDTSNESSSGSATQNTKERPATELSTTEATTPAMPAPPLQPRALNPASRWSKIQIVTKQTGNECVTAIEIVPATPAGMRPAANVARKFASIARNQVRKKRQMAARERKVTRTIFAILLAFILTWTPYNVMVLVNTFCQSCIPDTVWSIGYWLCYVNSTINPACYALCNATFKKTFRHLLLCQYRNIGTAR
Description: PDSP Primary Binding target: CHRM4 - Compounds are tested at 10 uM concentration, plate are incubated at room temperature in the dark for 90 minutes. Reaction are stopped by vacuum filtration onto 0.3% polyethyleneimine soaked filter mats using Filtermate harvester. Scintilation cocktail is then melted onto microwave-dried filters on a hot plate and the radio activity is counted in Microbia counter.

[5] = biological target: Beta-2 adrenergic receptor (Homo sapiens) (UniProt P07550)
Description: PDSP Primary Binding target: ADRB2 - Compounds are tested at 10 uM concentration, plate are incubated at room temperature in the dark for 90 minutes. Reaction are stopped by vacuum filtration onto 0.3% polyethyleneimine soaked filter mats using Filtermate harvester. Scintilation cocktail is then melted onto microwave-dried filters on a hot plate and the radio activity is counted in Microbia counter.

[6] = biological target: Sigma intracellular receptor 2 (Homo sapiens) (UniProt Q5BJF2)
Description: PDSP Primary Binding target: TMEM97 - Compounds are tested at 10 uM concentration, plate are incubated at room temperature in the dark for 90 minutes. Reaction are stopped by vacuum filtration onto 0.3% polyethyleneimine soaked filter mats using Filtermate harvester. Scintilation cocktail is then melted onto microwave-dried filters on a hot plate and the radio activity is counted in Microbia counter.

[7] = biological target: Mu-type opioid receptor (Homo sapiens) (UniProt P35372)
Description: PDSP Primary Binding target: OPRM1 - Compounds are tested at 10 uM concentration, plate are incubated at room temperature in the dark for 90 minutes. Reaction are stopped by vacuum filtration onto 0.3% polyethyleneimine soaked filter mats using Filtermate harvester. Scintilation cocktail is then melted onto microwave-dried filters on a hot plate and the radio activity is counted in Microbia counter.

[8] = biological target: 5-hydroxytryptamine receptor 2A (Homo sapiens) (UniProt P28223)
Description: PDSP Primary Binding target: HTR2A - Compounds are tested at 10 uM concentration, plate are incubated at room temperature in the dark for 90 minutes. Reaction are stopped by vacuum filtration onto 0.3% polyethyleneimine soaked filter mats using Filtermate harvester. Scintilation cocktail is then melted onto microwave-dried filters on a hot plate and the radio activity is counted in Microbia counter.

[9] = biological target: T4, Muscarinic acetylcholine receptor M1 (Homo sapiens) (UniProt P11229)
T4 sequence (whole entry): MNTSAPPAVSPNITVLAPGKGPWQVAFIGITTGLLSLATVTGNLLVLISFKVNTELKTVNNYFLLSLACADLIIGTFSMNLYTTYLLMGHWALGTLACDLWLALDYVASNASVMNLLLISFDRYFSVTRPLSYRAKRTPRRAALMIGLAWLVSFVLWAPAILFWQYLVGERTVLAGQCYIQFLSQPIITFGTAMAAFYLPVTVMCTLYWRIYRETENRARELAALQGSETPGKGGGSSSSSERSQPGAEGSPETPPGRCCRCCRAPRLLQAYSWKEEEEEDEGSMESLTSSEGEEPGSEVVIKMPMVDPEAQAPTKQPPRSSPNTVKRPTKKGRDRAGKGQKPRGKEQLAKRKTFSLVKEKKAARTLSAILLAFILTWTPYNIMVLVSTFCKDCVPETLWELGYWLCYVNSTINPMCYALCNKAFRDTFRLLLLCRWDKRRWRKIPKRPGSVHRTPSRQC
Description: PDSP Primary Binding target: CHRM1 - Compounds are tested at 10 uM concentration, plate are incubated at room temperature in the dark for 90 minutes. Reaction are stopped by vacuum filtration onto 0.3% polyethyleneimine soaked filter mats using Filtermate harvester. Scintilation cocktail is then melted onto microwave-dried filters on a hot plate and the radio activity is counted in Microbia counter.

[10] = biological target: 5-hydroxytryptamine receptor 1E (Homo sapiens) (UniProt P28566)
Description: PDSP Primary Binding target: HTR1E - Compounds are tested at 10 uM concentration, plate are incubated at room temperature in the dark for 90 minutes. Reaction are stopped by vacuum filtration onto 0.3% polyethyleneimine soaked filter mats using Filtermate harvester. Scintilation cocktail is then melted onto microwave-dried filters on a hot plate and the radio activity is counted in Microbia counter.

[11] = biological target: T5, Alpha-2B adrenergic receptor (Homo sapiens) (UniProt P18089)
T5 sequence (whole entry): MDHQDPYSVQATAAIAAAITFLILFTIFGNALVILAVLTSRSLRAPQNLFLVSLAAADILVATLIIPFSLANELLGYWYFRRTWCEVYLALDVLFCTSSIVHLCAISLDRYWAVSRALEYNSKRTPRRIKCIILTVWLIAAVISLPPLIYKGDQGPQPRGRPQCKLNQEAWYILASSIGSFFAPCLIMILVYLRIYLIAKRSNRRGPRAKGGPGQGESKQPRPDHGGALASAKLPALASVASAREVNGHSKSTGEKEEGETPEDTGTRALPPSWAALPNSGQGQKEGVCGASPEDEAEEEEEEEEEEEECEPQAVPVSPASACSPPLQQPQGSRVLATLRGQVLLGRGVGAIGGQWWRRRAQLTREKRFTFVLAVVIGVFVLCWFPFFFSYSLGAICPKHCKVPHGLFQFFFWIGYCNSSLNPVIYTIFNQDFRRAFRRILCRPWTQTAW
Description: PDSP Primary Binding target: ADRA2B - Compounds are tested at 10 uM concentration, plate are incubated at room temperature in the dark for 90 minutes. Reaction are stopped by vacuum filtration onto 0.3% polyethyleneimine soaked filter mats using Filtermate harvester. Scintilation cocktail is then melted onto microwave-dried filters on a hot plate and the radio activity is counted in Microbia counter.

[12] = biological target: Histamine H3 receptor (Homo sapiens) (UniProt Q9Y5N1)
Description: PDSP Primary Binding target: HRH3 - Compounds are tested at 10 uM concentration, plate are incubated at room temperature in the dark for 90 minutes. Reaction are stopped by vacuum filtration onto 0.3% polyethyleneimine soaked filter mats using Filtermate harvester. Scintilation cocktail is then melted onto microwave-dried filters on a hot plate and the radio activity is counted in Microbia counter.

[13] = biological target: Delta-type opioid receptor (Homo sapiens) (UniProt P41143)
Chain of Delta-type opioid receptor (Homo sapiens) (P41143 whole entry): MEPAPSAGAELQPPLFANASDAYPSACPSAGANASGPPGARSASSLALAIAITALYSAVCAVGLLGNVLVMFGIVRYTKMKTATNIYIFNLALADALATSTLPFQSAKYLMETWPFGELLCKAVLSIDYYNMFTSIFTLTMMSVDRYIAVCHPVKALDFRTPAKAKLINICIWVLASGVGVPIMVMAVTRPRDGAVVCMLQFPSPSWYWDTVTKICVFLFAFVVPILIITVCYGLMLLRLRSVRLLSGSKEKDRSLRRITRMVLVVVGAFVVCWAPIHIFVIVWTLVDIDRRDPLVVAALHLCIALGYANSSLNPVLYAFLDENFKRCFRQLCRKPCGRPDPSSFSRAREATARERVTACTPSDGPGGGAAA
Description: PDSP Primary Binding target: OPRD1 - Compounds are tested at 10 uM concentration, plate are incubated at room temperature in the dark for 90 minutes. Reaction are stopped by vacuum filtration onto 0.3% polyethyleneimine soaked filter mats using Filtermate harvester. Scintilation cocktail is then melted onto microwave-dried filters on a hot plate and the radio activity is counted in Microbia counter.

Chain of Mu-type opioid receptor (Homo sapiens) (P35372 whole entry): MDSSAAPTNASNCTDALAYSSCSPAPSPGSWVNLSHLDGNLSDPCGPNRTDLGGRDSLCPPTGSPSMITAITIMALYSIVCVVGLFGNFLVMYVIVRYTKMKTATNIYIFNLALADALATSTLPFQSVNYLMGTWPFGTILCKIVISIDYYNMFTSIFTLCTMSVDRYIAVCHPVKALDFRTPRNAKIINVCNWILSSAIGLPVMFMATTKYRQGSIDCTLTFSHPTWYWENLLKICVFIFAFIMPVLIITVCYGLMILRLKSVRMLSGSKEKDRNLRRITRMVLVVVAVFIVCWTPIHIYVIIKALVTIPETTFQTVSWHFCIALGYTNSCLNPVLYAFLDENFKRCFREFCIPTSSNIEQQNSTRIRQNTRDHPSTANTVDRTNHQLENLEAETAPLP
Chain of D(1B) dopamine receptor (Homo sapiens) (P21918 whole entry): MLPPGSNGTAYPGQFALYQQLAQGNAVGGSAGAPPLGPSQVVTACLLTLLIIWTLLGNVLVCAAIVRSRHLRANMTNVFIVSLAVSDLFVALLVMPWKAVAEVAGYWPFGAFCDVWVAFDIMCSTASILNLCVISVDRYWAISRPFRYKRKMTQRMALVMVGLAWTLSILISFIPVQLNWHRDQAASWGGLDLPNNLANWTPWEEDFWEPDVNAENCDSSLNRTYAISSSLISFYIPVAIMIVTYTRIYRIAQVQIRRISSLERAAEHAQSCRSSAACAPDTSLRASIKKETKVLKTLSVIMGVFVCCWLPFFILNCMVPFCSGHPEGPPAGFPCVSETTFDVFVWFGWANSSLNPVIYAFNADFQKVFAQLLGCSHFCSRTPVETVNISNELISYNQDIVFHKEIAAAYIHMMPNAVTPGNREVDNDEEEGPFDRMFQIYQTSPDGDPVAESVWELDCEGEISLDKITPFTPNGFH
Chain of Sigma intracellular receptor 2 (Homo sapiens) (Q5BJF2 whole entry): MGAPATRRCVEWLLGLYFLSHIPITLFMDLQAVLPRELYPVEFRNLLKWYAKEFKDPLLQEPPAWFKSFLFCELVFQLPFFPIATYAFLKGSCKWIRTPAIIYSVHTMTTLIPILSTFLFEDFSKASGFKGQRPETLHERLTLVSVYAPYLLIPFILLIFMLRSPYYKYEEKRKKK
Chain of Beta-2 adrenergic receptor (Homo sapiens) (P07550 whole entry, looked up): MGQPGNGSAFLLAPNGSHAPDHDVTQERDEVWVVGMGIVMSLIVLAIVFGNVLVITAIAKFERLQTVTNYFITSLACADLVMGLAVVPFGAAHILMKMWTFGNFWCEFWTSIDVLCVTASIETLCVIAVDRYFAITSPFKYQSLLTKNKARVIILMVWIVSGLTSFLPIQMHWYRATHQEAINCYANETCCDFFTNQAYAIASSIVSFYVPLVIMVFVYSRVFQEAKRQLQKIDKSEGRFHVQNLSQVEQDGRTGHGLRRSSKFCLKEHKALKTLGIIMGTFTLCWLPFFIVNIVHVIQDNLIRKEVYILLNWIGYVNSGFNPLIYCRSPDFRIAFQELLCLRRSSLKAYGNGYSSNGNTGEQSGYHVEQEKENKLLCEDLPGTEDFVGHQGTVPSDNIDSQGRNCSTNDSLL
Chain of 5-hydroxytryptamine receptor 2A (Homo sapiens) (P28223 whole entry): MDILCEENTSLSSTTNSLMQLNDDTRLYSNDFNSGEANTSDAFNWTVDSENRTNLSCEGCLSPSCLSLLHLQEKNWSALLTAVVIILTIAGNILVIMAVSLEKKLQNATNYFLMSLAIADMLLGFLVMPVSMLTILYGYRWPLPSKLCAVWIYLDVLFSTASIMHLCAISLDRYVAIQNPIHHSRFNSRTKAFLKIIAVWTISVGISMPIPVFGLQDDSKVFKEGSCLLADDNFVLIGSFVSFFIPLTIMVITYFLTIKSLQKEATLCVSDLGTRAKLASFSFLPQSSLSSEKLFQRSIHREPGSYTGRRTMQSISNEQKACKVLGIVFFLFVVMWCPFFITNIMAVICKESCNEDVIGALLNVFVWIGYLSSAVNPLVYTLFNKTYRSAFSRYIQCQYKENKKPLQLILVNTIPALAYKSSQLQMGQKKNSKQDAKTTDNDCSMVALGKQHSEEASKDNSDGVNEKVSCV
Chain of 5-hydroxytryptamine receptor 1E (Homo sapiens) (P28566 whole entry): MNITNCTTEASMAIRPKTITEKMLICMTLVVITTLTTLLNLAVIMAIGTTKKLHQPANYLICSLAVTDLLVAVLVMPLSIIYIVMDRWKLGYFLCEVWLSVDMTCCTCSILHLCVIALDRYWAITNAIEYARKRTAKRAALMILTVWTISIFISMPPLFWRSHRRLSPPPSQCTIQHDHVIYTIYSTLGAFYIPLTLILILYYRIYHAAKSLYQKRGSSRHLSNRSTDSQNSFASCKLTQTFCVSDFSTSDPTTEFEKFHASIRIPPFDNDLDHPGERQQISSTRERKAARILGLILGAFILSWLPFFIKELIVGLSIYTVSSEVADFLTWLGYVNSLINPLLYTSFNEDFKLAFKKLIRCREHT
Chain of Histamine H3 receptor (Homo sapiens) (Q9Y5N1 whole entry): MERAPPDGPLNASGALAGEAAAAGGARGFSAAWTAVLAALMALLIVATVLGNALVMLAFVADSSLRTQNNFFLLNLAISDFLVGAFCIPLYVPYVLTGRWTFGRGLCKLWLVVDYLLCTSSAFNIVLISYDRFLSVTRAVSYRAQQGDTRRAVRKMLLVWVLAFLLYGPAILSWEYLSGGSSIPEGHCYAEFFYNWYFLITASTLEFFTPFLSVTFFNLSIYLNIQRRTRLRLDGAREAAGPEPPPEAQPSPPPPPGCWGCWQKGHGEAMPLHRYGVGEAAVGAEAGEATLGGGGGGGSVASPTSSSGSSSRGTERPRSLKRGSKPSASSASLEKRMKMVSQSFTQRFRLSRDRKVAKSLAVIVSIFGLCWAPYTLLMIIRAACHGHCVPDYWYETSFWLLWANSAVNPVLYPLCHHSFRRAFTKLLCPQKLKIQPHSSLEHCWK

Q: With `c1cc(CN2CCCNCCNCCCNCC2)ccc1CN1CCCNCCNCCCNCC1` as the compound, how does the inhibition [1] read?
A: -5.65%

Q: And the inhibition [2]?
A: -9.28%

Q: What about the inhibition [3] of the same compound?
A: -0.54%

Q: And the inhibition [4]?
A: 41.7%

Q: And the inhibition [5]?
A: -4.45%

Q: And the inhibition [6]?
A: 22.5%

Q: What about the inhibition [7] of the same compound?
A: 13.8%

Q: What about the inhibition [8] of the same compound?
A: 0.83%

Q: What about the inhibition [9] of the same compound?
A: 62.3%

Q: And the inhibition [10]?
A: 33.9%

Q: And the inhibition [11]?
A: -9.59%

Q: And the inhibition [12]?
A: 80.5%

Q: What about the inhibition [13] of the same compound?
A: -4.5%

Q: `CN1CCN(c2ccc(Nc3c4ccccc4nc4ccccc34)cc2)CC1` was tested. Which inhibition [1] did it give?
A: 14.1%

Q: And the inhibition [2]?
A: 50.9%

Q: What about the inhibition [3] of the same compound?
A: 59.2%

Q: What about the inhibition [4] of the same compound?
A: 24.6%

Q: And the inhibition [5]?
A: 81.7%

Q: And the inhibition [6]?
A: 70.8%

Q: And the inhibition [7]?
A: 12.4%

Q: What about the inhibition [8] of the same compound?
A: 5.02%

Q: What about the inhibition [9] of the same compound?
A: 51.2%

Q: What about the inhibition [10] of the same compound?
A: 46.2%

Q: And the inhibition [11]?
A: 66%

Q: What about the inhibition [12] of the same compound?
A: 82.6%

Q: And the inhibition [13]?
A: 5.07%
